{"source": "patent US12329730B2", "about": "“Thermoresponsive hydrogel containing polymer microparticles for controlled drug delivery” (UNIVERSITY OF PITTSBURGH—OF THE COMMONWEALTH SYSTEM OF …, priority 2017, dated 2025)", "origin": "cited, not measured here", "test_system": "Streptococcus pneumoniae and Haemophilus influenzae", "details": "Jacobs et al. 1999"}
{"smiles": "O=C(O)c1cn(C2CC2)c2cc(N3CCNCC3)c(F)cc2c1=O", "note": "[ciprofloxacin]", "values": [{"measurement": "minimum inhibitory concentration (MIC)", "value": 2, "unit": "µg/mL"}]}
